{
  "source": "paper PMC10587159",
  "about": "“Biosynthesis and engineering of the nonribosomal peptides with a C-terminal putrescine” (Nature Communications, 2023)",
  "key": {"human cells Kasumi": {"system": "human cells Kasumi", "test": "MTT cytotoxicity assay, Kasumi", "assay_type": "cell-based", "settings": "24 h", "procedure,_shortened": "(§1)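 An MTT-based assay, run as in prior work, gives compound cytotoxicity here. The tested lines undergo routine authentication through morphology and gene/protein expression checks.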"}, "tumor lines": {"system": "tumor lines", "test": "MTT cytotoxicity assay, statements on the whole panel", "assay_type": "cell-based, human", "settings": "MTT assay, panel of tumor cell lines", "procedure,_shortened": "as §1"}, "HepG2 cells [1]": {"system": "HepG2 cells", "test": "Extracellular and intracellular compound in HepG2 cells (LC-MS)", "assay_type": "in vitro ADME, human", "settings": "3 h", "method": "(§2) Comparing the concentration of compounds (7, 10, 10a) in extracellular and intracellular after the HepG2 cell line dealt with compounds. HepG2 cells were plated in six-well plates at a density of 1.5 × 10^5 cells/well and grew overnight. After cell treated with compounds (5 μg/mL) for 3 h, the compounds were extracted with MeOH for cells culture medium and cells separately as followed the reported method. The compounds were quantified by LC‒MS (5%‒95% ACN in 15 min). The cell numbers of HepG2 with the compounds treatments was determined. […]\n(§3) To determine whether the difference in bioactivity of products (with or without Put moiety) is due to variations in cellular uptake, we treated hepatoma cell line HepG2 with compounds 7 (C12 acyl), 10 (C14 acyl), and 10a (C14 acyl and without Put) (Supplementary Fig. 33c). The cells were treated for 3 h, and then culture medium and cells were extracted separately. LC-MS was used to detect and quantify the compounds.\n(§4) At lower concentrations (5000 ng/mL, and 10,000 ng in total for each group), and […]\n(§5) may be contributing to the differences in antitumor activity (Supplementary Fig. 33b).\n(§6) This could be due to differences in the speed of cellu lar uptake or differences in drug metabolism rate, requiring further experimental investigation."}, "HepG2 cells [2]": {"system": "HepG2 cells", "test": "Cell numbers of HepG2 after compound treatment", "assay_type": "cell-based, human", "settings": "HepG2, 1.5 × 10^5 cells/well plated, compound 5 μg/mL, 3 h; mean of n = 3", "method": "as §2, §3, §4, §5, §6"}},
  "note": "Non-standard residues stand in square brackets, D forms with d. Residues, ends and D or L forms follow the SMILES beside them. *: point of attachment. Lauroyl = CCCCCCCCCCCC(=O)*; NH(CH2)4NH2 = NCCCCN*",
  "data": [
    {"smiles": "CCCCCCCCCCCC(=O)N[C@H](CCSC)C(=O)N[C@H](CC(N)=O)C(=O)N1CCC[C@H]1C(=O)N[C@H](C(=O)N[C@H](Cc1ccccc1)C(=O)N1CCC[C@H]1C(=O)N[C@@H](Cc1c[nH]c2ccccc12)C(=O)N[C@@H](C(=O)N[C@@H](C)C(=O)N[C@H](C)C(=O)N[C@@H](CO)C(=O)N[C@@H](C)C(=O)NCCCCN)C(C)C)C(C)C", "note": "[Compound 7, Glidonin G] (Lauroyl-[dM][dN]PV[dF]PW[dV]A[dA]SA-{NH(CH2)4NH2})", "values": [
      {"measurement": "IC50", "setting": "human cells Kasumi", "value": "7.93 ± 0.35", "unit": "µM"},
      {"measurement": "cytotoxic / antitumor activity in words", "setting": "tumor lines", "value": "broad-spectrum cytotoxicity"},
      {"measurement": "total quantities (intracellular plus extracellular) in words", "setting": "HepG2 cells [1]; HepG2, 5000 ng/mL, compared to 10a", "value": "lower total quantities"},
      {"measurement": "Intracellular compound, Average", "setting": "HepG2 cells [1]; HepG2, six-well plates, 5 μg/mL (10,000 ng in total), cells extracted with MeOH, mean of n = 3", "value": 13.4894, "unit": "ng"},
      {"measurement": "Extracellular compound, Average", "setting": "HepG2 cells [1]; HepG2, six-well plates, 5 μg/mL (10,000 ng in total), culture medium extracted with MeOH, mean of n = 3", "value": 2764.81, "unit": "ng"},
      {"measurement": "The cell numbers, Average", "setting": "HepG2 cells [2]", "value": 1323333}
    ]}
  ]
}
